Results taken from patent US9902713B2, “Neuroprotective compounds and use thereof” (BOARD OF REGENTS OF THE UNIVERSITY OF TEXAS SYSTEM, priority 2013, dated 2018).

How the values were obtained:
[1] = tested on: blood-brain barrier; experiment: Blood brain barrier permeability assay (Evans blue); assay type: in vivo; settings: sham-injured mice, 3 days of daily treatment
Excerpt: On the basis of the promising results seen with administration of P7C3-A20 or P7C3-S243 immediately after injury, we sought to determine whether P7C3-S243 could offer protective efficacy when treatment was initiated later. Because TBI can disrupt the blood-brain barrier (BBB), we first examined BBB integrity over time by means of the Evans blue assay. Evans blue is an azo dye with tight affinity for albumin, such that in serum virtually all Evans blue is albumin-bound. Normally, serum albumin cannot cross the BBB. However, when the BBB is compromised, albumin and its bound Evans blue can enter the CNS. The magnitude of Evans blue accumulation in the brain can then be spectrophotometrically determined in order to monitor disruption of the BBB (Uyama et al., 1988; Hawkins and Egleton, 2006). With this technique, we observed significant disruption of the BBB 6 hours after blast-injury, with integrity of the BBB recovering to normal 18 hours later (FIG. 21B).
Blood brain barrier (BBB) permeability assay. […] To quantify the extravasation of albumin-bound EBD in each brain, tissue was weighed and incubated for 30 minutes at room temperature in 50% Tricholoracetic acid (TCA) in PBS at a 3:1 μl/mg ratio. […] Fluorescence was measured using a SpectraMax M2^e (Molecular Devices) in 100 μl of samples plated on a 96-well plate at excitation wavelength of 620 nm and an emission wavelength of 680 nm.

[2] = tested on: cultured hippocampal neurons; experiment: 6-OHDA toxicity in cultured neurons (MTT); assay type: cell-based; settings: 10 μM compound
Method: (§1) A rat model of Parkinson's disease, incuded by 6-hydroxydopamine (6-OHDA) was used to test various compounds As shown in FIGS. 33A-33D, P7C3-S243 protects cultured hippocampal and cortical neurons from 6-OHDA toxicity. […] (FIG. 33B) The average number of hippocampal neurons in the 10 μM P7C3-S243 treatment group was not different from the average number of hippocampal neurons treated with medium alone or with DMSO+Ascorbic acid (one-way ANOVA). […] The average number of cortical neurons in the 10 μM P7C3-S243 treatment group was not different from the average number of cortical neurons treated with medium alone or with DMSO+Ascorbic acid (one-way ANOVA). Experiments were performed two independent times, with 8-12 replicates of each sample both times.

[3] = tested on: cultured cortical neurons; experiment: 6-OHDA toxicity in cultured neurons (MTT); assay type: cell-based; settings: 10 μM compound
Method: as §1

[4] = molecular target: 2B6 (Homo sapiens, UniProt P20813); experiment: Cytochrome P450 inhibition; assay type: in vitro ADME
2B6, sequence (P20813 whole entry): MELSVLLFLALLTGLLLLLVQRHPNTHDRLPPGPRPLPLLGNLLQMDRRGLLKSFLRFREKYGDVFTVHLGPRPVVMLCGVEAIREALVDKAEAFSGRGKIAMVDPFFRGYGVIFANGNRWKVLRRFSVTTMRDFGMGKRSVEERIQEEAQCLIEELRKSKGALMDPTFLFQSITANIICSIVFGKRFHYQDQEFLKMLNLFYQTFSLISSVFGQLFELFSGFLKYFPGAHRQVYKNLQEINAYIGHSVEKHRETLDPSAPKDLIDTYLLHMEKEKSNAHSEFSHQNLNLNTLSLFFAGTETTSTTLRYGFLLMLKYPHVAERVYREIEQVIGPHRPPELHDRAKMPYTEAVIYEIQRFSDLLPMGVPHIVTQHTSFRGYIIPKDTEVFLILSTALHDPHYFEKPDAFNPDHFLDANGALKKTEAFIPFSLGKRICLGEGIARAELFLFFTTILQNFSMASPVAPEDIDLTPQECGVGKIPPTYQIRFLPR

[5] = molecular target: CYP1A2 (Homo sapiens, UniProt P05177); experiment: Cytochrome P450 inhibition
CYP1A2, sequence (P05177 whole entry): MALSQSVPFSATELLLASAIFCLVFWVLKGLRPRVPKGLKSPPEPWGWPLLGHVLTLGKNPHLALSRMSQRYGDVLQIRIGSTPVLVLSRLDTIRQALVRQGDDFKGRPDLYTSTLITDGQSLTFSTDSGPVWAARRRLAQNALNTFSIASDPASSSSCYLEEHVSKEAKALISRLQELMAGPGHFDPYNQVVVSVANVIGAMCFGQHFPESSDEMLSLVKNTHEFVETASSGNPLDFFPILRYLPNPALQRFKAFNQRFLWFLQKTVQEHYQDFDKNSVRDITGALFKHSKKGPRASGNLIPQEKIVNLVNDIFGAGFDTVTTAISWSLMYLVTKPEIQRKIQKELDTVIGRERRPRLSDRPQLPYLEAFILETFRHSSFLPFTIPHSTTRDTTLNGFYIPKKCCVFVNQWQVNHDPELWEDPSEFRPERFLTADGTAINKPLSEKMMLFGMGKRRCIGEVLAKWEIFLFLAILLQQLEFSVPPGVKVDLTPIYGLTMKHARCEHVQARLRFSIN

[6] = molecular target: 2C8 (Homo sapiens, UniProt P10632); experiment: Cytochrome P450 inhibition; assay type: in vitro ADME
2C8, sequence (P10632 whole entry): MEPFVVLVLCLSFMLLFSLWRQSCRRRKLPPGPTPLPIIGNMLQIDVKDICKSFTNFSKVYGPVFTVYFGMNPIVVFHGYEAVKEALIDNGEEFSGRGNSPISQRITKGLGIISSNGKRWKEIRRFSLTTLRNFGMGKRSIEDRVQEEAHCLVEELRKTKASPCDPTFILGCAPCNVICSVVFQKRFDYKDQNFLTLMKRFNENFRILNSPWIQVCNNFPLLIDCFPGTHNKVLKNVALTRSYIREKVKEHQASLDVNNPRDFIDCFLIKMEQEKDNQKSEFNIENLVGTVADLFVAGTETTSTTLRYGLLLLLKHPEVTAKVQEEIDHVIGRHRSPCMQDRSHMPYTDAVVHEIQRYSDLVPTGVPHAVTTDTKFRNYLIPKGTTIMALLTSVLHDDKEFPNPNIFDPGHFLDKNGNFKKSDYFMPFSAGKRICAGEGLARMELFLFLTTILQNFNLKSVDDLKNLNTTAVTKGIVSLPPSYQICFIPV

Row | SMILES | BBB integrity [1] | average number of neurons vs medium or DMSO+Ascorbic acid [2] | protection (MTT) ([2]; 50 μM 6-OHDA, 24 hrs) | average number of neurons vs medium or DMSO+Ascorbic acid [3] | protection (MTT) ([3]; 50 μM and 75 μM 6-OHDA) | sensitivity of cytochrome P450 [4] | IC50 [5] [µM] | sensitivity of cytochrome P450 [6]
1 | COc1cccc(NCC(F)Cn2c3ccc(Br)cc3c3cc(Br)ccc32)n1 (racemic) [P7C3-S243, N-(3-(3,6-dibromo-9H-carbazol-9-yl)-2-fluoropropyl)-6-methoxypyridin-2-amine] | did not compromise BBB integrity | not different | significant protection | not different | significant protection | – | – | –
2 | COc1cccc(NCC(F)Cn2c3ccc(Br)cc3c3cc(Br)ccc32)n1 (single isomer, unassigned; (-)) [(−)-P7C3-S243, (−)-N-(3-(3,6-dibromo-9H-carbazol-9-yl)-2-fluoropropyl)-6-methoxypyridin-2-amine] | – | – | – | – | – | insensitive | 20 | insensitive
